# Laboratory results: patent US20060229433A1, “Modified antiviral peptides with increased activity and cell membrane affinity” (priority 2003, published 2006)
# “And” between values parts separate entries of the source, which are not always exact repeats. Identical values can stand only once. Square brackets hold non-standard residues; d marks the D form. Peptide text beside a SMILES is read from it. Ava = NCCCCC(=O)O
# Columns and labels:
# Format in all cases: cell-based
# [1] = test system: HIV-1 NDK; assay: HIV-1 infection of C8166 cells (syncytia formation, p24 ELISA) with HIV-1 NDK; parameters: key to syncitia formed, Day 4 / syncitia formed, Day 5 / syncitia formed, Day 6 / syncitia formed, Day 7: ++, +, (+), (+)− and − represent decreasing numbers of syncitia formed; ++, +, (+), (+)− and − represent decreasing numbers of syncitia formed; ++, +, (+), (+)− and − represent decreasing numbers of syncitia formed; ++, +, (+), (+)− and − represent decreasing numbers of syncitia formed; ++, +, (+), (+)− and − represent decreasing numbers of syncitia formed; settings: for P 24: P 24 after Day 7
# Method in brief: (§1)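 Infection was read out as syncytia and as cell-free p24 in supernatants (ELISA) from C8166 cells that received HIV-1 (1000 TCID50/ml, 1 h, 37 °C) after a 1 h peptide pretreatment. Peptide stayed on before, during and after adsorption. Toxicity was checked by daily trypan-blue counts.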
# [2] = test system: HIV-1 NL 4-3; assay: HIV-1 infection of C8166 cells (syncytia formation, p24 ELISA) with HIV-1 NL 4-3; parameters: key to syncitia formed, Day 4 / syncitia formed, Day 5 / syncitia formed, Day 6 / syncitia formed, Day 7: ++, +, (+), (+)− and − represent decreasing numbers of syncitia formed; ++, +, (+), (+)− and − represent decreasing numbers of syncitia formed; ++, +, (+), (+)− and − represent decreasing numbers of syncitia formed; ++, +, (+), (+)− and − represent decreasing numbers of syncitia formed; ++, +, (+), (+)− and − represent decreasing numbers of syncitia formed
# Method in brief: as §1
# [3] = test system: HIV-1 NL 4-3; assay: as above; parameters: key: ++, +, (+), (+)− and − represent decreasing numbers of syncitia formed; ++, +, (+), (+)− and − represent decreasing numbers of syncitia formed; ++, +, (+), (+)− and − represent decreasing numbers of syncitia formed; ++, +, (+), (+)− and − represent decreasing numbers of syncitia formed; ++, +, (+), (+)− and − represent decreasing numbers of syncitia formed; settings: Table 6
# Method in brief: as §1
smiles,measurement,setting,value
"C[C@H](NC(=O)[C@H](CCCNC(=N)N)NC(=O)CNC(=O)[C@@H]1CCCN1C(=O)CN)C(=O)NCCCCC(=O)O [GPGRA valeric acid, GPGRA-NHCH2CH2CH2CH2COOH] (H-GPGRA[Ava]-OH; N-terminus assumed)","syncitia formed, Day 4",[1]; 0.005 μM,(+)
same,"syncitia formed, Day 5",[1]; 0.005 μM,+
same,"syncitia formed, Day 6",[1]; 0.005 μM,++
same,"syncitia formed, Day 7",[1]; 0.005 μM,++
same,P 24,[1]; 0.005 μM,23810 pg/mL
same,"syncitia formed, Day 4",[1]; 0.01 μM,−
same,"syncitia formed, Day 5",[1]; 0.01 μM,+
same,"syncitia formed, Day 6",[1]; 0.01 μM,++
same,"syncitia formed, Day 7",[1]; 0.01 μM,++
same,P 24,[1]; 0.01 μM,13810 pg/mL and 18710 pg/mL
same,"syncitia formed, Day 4",[1]; 0.05 μM,−
same,"syncitia formed, Day 5",[1]; 0.05 μM,(+)
same,"syncitia formed, Day 6",[1]; 0.05 μM,++
same,"syncitia formed, Day 7",[1]; 0.05 μM,++
same,"syncitia formed, Day 4",[1]; 0.1 μM,−
same,"syncitia formed, Day 5",[1]; 0.1 μM,(+)
same,"syncitia formed, Day 6",[1]; 0.1 μM,++
same,"syncitia formed, Day 7",[1]; 0.1 μM,++
same,P 24,[1]; 0.1 μM,5600 pg/mL and 6400 pg/mL
same,"syncitia formed, Day 4",[1]; 0.5 μM,−
same,"syncitia formed, Day 5",[1]; 0.5 μM,−
same,"syncitia formed, Day 6",[1]; 0.5 μM,+
same,"syncitia formed, Day 7",[1]; 0.5 μM,++
same,"syncitia formed, Day 4",[1]; 1 μM,−
same,"syncitia formed, Day 5",[1]; 1 μM,−
same,"syncitia formed, Day 6",[1]; 1 μM,−
same,"syncitia formed, Day 7",[1]; 1 μM,+
same,P 24,[1]; 1 μM,2000 pg/mL and 2403 pg/mL
same,"syncitia formed, Day 4",[1]; 5 μM,−
same,"syncitia formed, Day 5",[1]; 5 μM,−
same,"syncitia formed, Day 6",[1]; 5 μM,−
same,"syncitia formed, Day 7",[1]; 5 μM,− and (+)
same,IC50,"[1]; HIV 1 NDK, Table 10",> 5000 nM
same,IC100,"[1]; HIV 1 NDK, Table 10",5 µM
same,Day 7 syncitia formed,"[2]; 0.005 μM, Table 6",++/T
same,"syncitia formed, Day 4","[2]; 0.01 μM, C8166 cells",−
same,"syncitia formed, Day 5","[2]; 0.01 μM, C8166 cells",+
same,"syncitia formed, Day 6","[2]; 0.01 μM, C8166 cells",++
same,"syncitia formed, Day 7","[2]; 0.01 μM, Day 7, C8166 cells",++
same,P 24,"[2]; 0.01 μM, P 24 after Day 7, C8166 cells",13870 pg/mL and 11810 pg/mL
same,"syncitia formed, Day 4","[2]; 0.05 μM, C8166 cells",−
same,"syncitia formed, Day 5","[2]; 0.05 μM, C8166 cells",(+)
same,"syncitia formed, Day 6","[2]; 0.05 μM, C8166 cells",+
same,"syncitia formed, Day 7","[2]; 0.05 μM, Day 7, C8166 cells",+
same,"syncitia formed, Day 4","[2]; 0.1 μM, C8166 cells",−
same,"syncitia formed, Day 5","[2]; 0.1 μM, C8166 cells",−
same,"syncitia formed, Day 6","[2]; 0.1 μM, C8166 cells",(+)
same,"syncitia formed, Day 7","[2]; 0.1 μM, Day 7, C8166 cells",+
same,P 24,"[2]; 0.1 μM, P 24 after Day 7, C8166 cells",2356 pg/mL and 2416 pg/mL
same,"syncitia formed, Day 4","[2]; 0.5 μM, C8166 cells",−
same,"syncitia formed, Day 5","[2]; 0.5 μM, C8166 cells",−
same,"syncitia formed, Day 6","[2]; 0.5 μM, C8166 cells",−
same,"syncitia formed, Day 7","[2]; 0.5 μM, Day 7, C8166 cells",(+)
same,"syncitia formed, Day 4","[2]; 1 μM, C8166 cells",−
same,"syncitia formed, Day 5","[2]; 1 μM, C8166 cells",−
same,"syncitia formed, Day 6","[2]; 1 μM, C8166 cells",−
same,"syncitia formed, Day 7","[2]; 1 μM, Day 7, C8166 cells",−
same,P 24,"[2]; 1 μM, P 24 after Day 7, C8166 cells",13 pg/mL and 10 pg/mL
same,"syncitia formed, Day 4","[2]; 5 μM, C8166 cells",−
same,"syncitia formed, Day 5","[2]; 5 μM, C8166 cells",−
same,"syncitia formed, Day 6","[2]; 5 μM, C8166 cells",−
same,"syncitia formed, Day 7","[2]; 5 μM, Day 7, C8166 cells",−
same,P 24,"[2]; 5 μM, P 24 after Day 7, C8166 cells",2.7 pg/mL and 3 pg/mL
same,IC50,"[2]; C8166 cells, HIV-1 subtype B NL 4-3, Table 9, two lines = tested twice, 8 days apart",10 nM
same,P 24,"[2]; Day 7, 0.005 μM, Table 6",23810 pg/mL
same,P 24,"[2]; Day 7, 0.01 μM, Table 6",13030 pg/mL and 13810 pg/mL
same,P 24,"[2]; Day 7, 0.05 μM, Table 6",6830 pg/mL and 3820 pg/mL
same,P 24,"[2]; Day 7, 0.5 μM, Table 6",2 pg/mL and 2.2 pg/mL
same,P 24,"[2]; Day 7, 1 μM, Table 6",2.3 pg/mL and 1.9 pg/mL
same,P 24,"[2]; Day 7, 5 μM, Table 6",2.7 pg/mL and 1.8 pg/mL
same,Day 4 syncitia formed,[3]; 0.005 μM,−
same,Day 5 syncitia formed,[3]; 0.005 μM,+
same,Day 6 syncitia formed,[3]; 0.005 μM,++
same,Day 4 syncitia formed,[3]; 0.01 μM,−
same,Day 5 syncitia formed,[3]; 0.01 μM,+
same,Day 6 syncitia formed,[3]; 0.01 μM,++
same,Day 7 syncitia formed,[3]; 0.01 μM,++
same,Day 4 syncitia formed,[3]; 0.05 μM,−
same,Day 5 syncitia formed,[3]; 0.05 μM,(+)
same,Day 6 syncitia formed,[3]; 0.05 μM,+
same,Day 7 syncitia formed,[3]; 0.05 μM,+
same,Day 4 syncitia formed,[3]; 0.1 μM,−
same,Day 5 syncitia formed,[3]; 0.1 μM,(+)
same,Day 6 syncitia formed,[3]; 0.1 μM,+
same,Day 7 syncitia formed,[3]; 0.1 μM,+
same,Day 4 syncitia formed,[3]; 0.5 μM,−
same,Day 5 syncitia formed,[3]; 0.5 μM,−
same,Day 6 syncitia formed,[3]; 0.5 μM,−
same,Day 7 syncitia formed,[3]; 0.5 μM,−
same,Day 4 syncitia formed,[3]; 1 μM,−
same,Day 5 syncitia formed,[3]; 1 μM,−
same,Day 6 syncitia formed,[3]; 1 μM,−
same,Day 7 syncitia formed,[3]; 1 μM,−
same,Day 4 syncitia formed,[3]; 5 μM,−
same,Day 5 syncitia formed,[3]; 5 μM,−
same,Day 6 syncitia formed,[3]; 5 μM,−
same,Day 7 syncitia formed,[3]; 5 μM,−
